Format in all cases: cell-based
Assay [1] deals with Escherichia coli (ATCC25922 strain). Description: Antimicrobial susceptibility test using the ATP method (dead bacteria ATP / live bacteria ATP ratio). The note with it: E. coli, ABPC 4 μg/mL, LVFX 0.125 μg/mL, FIG. 11. As for the experimental part: (§1) In this experiment, Escherichia coli (ATCC25922 strain; hereinafter, referred to as E. coli) and Staphylococcus aureus (ATCC25923; hereinafter, referred to as S. aureus) are used as the bacterial cell. An antimicrobial susceptibility test using the ATP method is carried out for both of these. As antibiotics, ampicillin and levofloxacin (hereinafter, referred to as LVFX) are used. First, the bacterial cells are cultured overnight on an LB agar medium, and the next day, a colony is suspended in a Mueller-Hinton (hereinafter, referred to as MH) medium, thereby preparing a bacterial suspension prepared in 0.5 McFarland. Next, the bacterial suspension diluted 500 times in the MH medium is distributed as much as each 50 μL to the plate to which the MH medium containing the antibiotic whose concentration is twice the final concentration is distributed in advance as much as each 50 μL. The static culture is carried out at 37° C. for a certain period of time, and the bacterial suspension is prepared. For the final concentration of the antibiotic, ABPC is set to 4 μg/mL and LVFX is set to 0.125 μg/mL in a case where E. coli is a measurement target. In a case where S. aureus is a measurement target, ABPC is set to 0.25 μg/mL and LVFX is set to 0.125 μg/mL. The bacterial cells are compared with the bacterial cells cultured in the MH medium having no antibiotic contained therein. The live bacteria ATP is prepared by mixing 2 μL of the ATP eliminating solution with 18 μL of the above-described bacteria culture liquid, and the mixture is left static at room temperature for 30 minutes. Thereafter, 20 μL of the ATP extracting reagent is mixed therewith, and the mixture is left static at room temperature for one minute so as to prepare the live bacteria ATP. The dead bacteria ATP is prepared by adding the bacteria culture liquid onto a filter (membrane pore size 0.22 μm). The filtrate obtained through filtering using centrifugation is used as the dead bacteria ATP. The luminescence reagent is added to the prepared live bacteria ATP or dead bacteria ATP, and is subjected to photon counting for one minute. The obtained luminescence amount (amount of luminescence (a.u.)) is used as an index of the ATP amount. According to the above-described experiment, a luminescence amount ratio between the dead ATP luminescence amount and the live ATP luminescence amount is obtained. FIGS. 11 and 12 illustrate a result obtained by calculating the luminescence amount ratio as an amount ratio between the live bacteria ATP and the dead bacteria ATP.

Assay [2] has as its system Staphylococcus aureus (ATCC25923). The assay is described as above. As to conditions: S. aureus, ABPC 0.25 μg/mL, LVFX 0.125 μg/mL, FIG. 12. The procedure:
as §1

Assay [3] deals with E. coli. Description: Time-dependent change in live and dead bacteria ATP luminescence amount (Methods (1) to (4)). The text has this:
Next, a method for measuring ATP derived from the live bacteria and the dead bacteria will be described with reference to FIG. 2. A live bacteria ATP method in Method (1) is used in eliminating ATP5 outside a bacterial cell so as to measure ATP2000 included in the cell membrane of the live bacterium 2 and ATP3000 included in the cell membrane of the dead bacterium 3 having no damage to the cell membrane. A submerged ATP method in Method (2) is used in measuring the dead bacteria 4 having the damaged cell membrane and the free ATP5 in the culture liquid 1 while the bacterial cells of the live bacterium 2 and the dead bacteria 3 and 4 are included. The dead bacterium 4 serves as a measurement target, since a substrate and enzyme of enzyme luciferase reaction which are bioluminescent molecules (to be described later) enter the dead bacterium 4 from a damaged site. […]
Next, a result example obtained in such a way that E. coli as an example is processed according to Methods (1) to (4) so as to measure an ATP amount will be described with reference to FIGS. 4a and 4b. […] The luciferase oxidizes luciferin which serves as a substrate in the presence of ATP and Mg^2+ inside the bacteria, and a luminescence amount generated at that time is proportional to the ATP amount. Accordingly, bacteria growth is evaluated, based on a change in the luminescence amount.
In the present embodiment, the luminescence amount is represented by integration of a photon count value of 60 sec, and the unit is defined as the luminescence amount (amount of luminescence (a.u.)). As described above, the luminescence amount and the ATP amount are in a proportional relationship. In a case where the luminescence amount increases, it is determined that the ATP amount increases.
FIG. 4a illustrates a result obtained by culturing E. coli on the absence of antibiotics. […] If the results in FIGS. 4a and 4b are compared with each other, in FIG. 4a, according to the live bacteria ATP method in Method (1), the luminescence amount increases with the lapse of the culture time until four hours of the culture time. […]

Molecules are shown by their SMILES.

For `CC1(C)S[C@@H]2[C@H](NC(=O)[C@H](N)c3ccccc3)C(=O)N2[C@H]1C(=O)O` [ABPC, ampicillin], the “time after start of antimicrobial susceptibility culture at which the effect can be determined (ratio dead bacteria ATP/live bacteria ATP = 1)” value in assay [1] was “approximately three”; in assay [2] it was “approximately two and a half”. Moreover, the “ratio of the dead bacteria ATP amount/the live bacteria ATP amount as the culture time elapses” value in assay [1] (MH medium, 37° C.) is recorded as “increases”; in assay [2] (MH medium, 37° C.) it was “increases”. Also, the “luminescence amount according to submerged ATP method (2) to total ATP method (4)” value in assay [3] (E. coli cultured in the presence of 8 μg/mL ampicillin, FIG. 4b) is given as “increases or does not vary greatly”. The “luminescence amount of the live bacteria ATP according to Method (1)” value in assay [3] (E. coli cultured in the presence of 8 μg/mL ampicillin, after three hours of culture, FIG. 4b) was “decreases with the lapse of the culture time”. The “action of the antibiotic on growth of live bacteria” value in assay [3] (E. coli, 8 μg/mL ampicillin, during four hours of the culture time) is on record as “stops the growth of the live bacteria so as to kill the bacteria with the lapse of time”.

The values are drawn from patent publication US10619182B2, “Method, device and system for testing drug sensitivity” (HITACHI, LTD., priority 2014, dated 2020).
